Reference: patent US4436753A, “Method for therapy of ischemic disease” (Takeda Chemical Industries, Ltd., priority 1979, dated 1984)

What was measured:
SHRSP [1] = assay: Antihypertensive action; assay type: in vivo, rat; conditions: 35 mg/kg daily oral
Excerpt: | ^1 Each group consisted of 12 animals.

SHRSP [2] = assay: Cerebral apoplexy preventing effect; assay type: in vivo, rat
Procedure: The SHRSP, fed with high sodium chloride level, are liable to develop cerebral apoplexy (cerebral hemorrhage or hemorrhagic infarction) with high incidence. The compound of the invention (I, n=10) was administered in admixture with the diet to a group of 12 male SHRSP.
^1 8week-old male SHRSP
^2 14week-old male SHRSP
^3 Number of apoplectic cases/number of animals used.

[3] = system: Spontaneously hypertensive rats; assay: Protecting effect against heart failure (drug-induced cardiac insufficiency), spontaneously hypertensive rats; assay type: in vivo, rat; conditions: administration period 10 days
normal rat = assay: Preventing effect against development of malignant hypertension (unilateral kidney excision, desoxycorticosterone acetate, 1% sodium chloride); assay type: in vivo; conditions: 50 mg/kg oral twice a day
Procedure: The kidney of each normal rat was unilaterally excised, and desoxycorticosterone acetate (10 mg/kg) was administered subcutaneously once a week. The rats were given a 1% aqueous sodium chloride solution as drinking water. On the day of operation and thereafter, the compound of the invention (I, n=10) was orally administered at a dose of 50 mg/kg twice a day, and the above indexes of aggravation were determined.

[4] = system: bovine heart mitochondria deactivated by treatment with acetone (succinate oxidase activity); assay: Mitochondrial respiration activating effect (succinate oxidase oxygen consumption); assay type: biochemical; conditions: 5 n mole added; 23° C.; succinate substrate; acetone-treated mitochondria
Procedure: The effect of activating the respiration of bovine heart mitochondria deactivated by treatment with acetone was evaluated by the method of Lester and Fleischer (Biochim. Biophys. Acta, vol. 113, p. 519, 1966). The respiration activating effect was expressed in terms of oxygen consumption due to succinate oxidase activity, succinic acid being the substrate.
*The rate was measured at 23° C. using an oxygen electrode
apparatus (Gilson's model KIC). Composition of the reaction medium (2 ml)
0.2 M sucrose, 10 mM Trishydrochloric acid (pH 7.4), 20 mM KCl, 3 mM
MgCl2, 50 μM EDTA.2Na, 1.99 mg (as protein) acetonetreated
mitochondria, 50 μM potassium succinate, 0.2 mg cytochrome C, and 5
μl 1% Nikkol OP10 ® (polyoxyethylene octylphenyl ether; Produced b
Nikko Chemicals) solution of the test sample (in the case of the test
sample) or 5 μl 1% Nikkol OP10 ® (Polyoxyethylene octylphenyl
ether; Produced by Nikko Chemicals) (in the case of the control).

SHRSP [5] = assay: Improving effect on symptoms of cerebral apoplexy; assay type: in vivo, rat; conditions: 100 mg/kg/day oral, 21 days after first symptom
Excerpt: SHRSP's were fed under sodium chloride loading as in Example 3. Upon manifestation of the first symptom, the sodium chloride loading was discontinued and at the same time oral administration of the compound of the invention (I, n=10) was commenced. After administration for 3 weeks, the dosed group was compared with the control group in respect of the severity of the symptoms. The severity was scored (0 for no symptoms to 5 for the severest) for each individual and the results were expressed in terms of the total score for the respective group. As shown by the results set forth in Table 4, the administration of the compound of the present invention alleviated the clinical symptoms after manifestation of the apoplexy. The body weight loss after the apoplexy was also depressed.

normal rats = assay: Protecting effect against heart failure (Adriamycin-induced), normal rats; assay type: in vivo, rat; conditions: Adriamycin 1 mg/kg/day i.p., compound 10 mg/kg/day oral, 10 days
Procedure: Adriamycin (1 mg/kg/day) was intraperitoneally administered to normal rats and, after 2 weeks, the compound of the invention (I, n=10) (10 mg/kg/day) was orally administered, and the cardiac functional state was examined electrocardiographically and biochemically. […] In addition, the tissue lactic acid level, an index of myocardinal energy state, was lowered.

[6] = 2-week oral repeated dose toxicity (Reference Example 8); assay type: in vivo; conditions: gum arabic suspension, 100 mg/kg or 500 mg/kg daily for 2 weeks
Procedure: The compound of the present invention (I, n=10) was suspended in a gum arabic solution and oraly administered consecutively for 2 weeks at a daily dose of 100 mg/kg or 500 mg/kg, and examination of general condition, urinalysis and blood examination were carried out during the course of administration. Histopathology was done at the termination of the administration.

SHRSP [7] = assay: Cerebral ischemia-protecting effect, carotid artery ligated on both sides; assay type: in vivo, rat
Excerpt: Spontaneously hypertensive rats showing a strong tendency to cerebral apoplexy (hereinafter abbreviated to SHRSP) (Okamoto et al., Circulation Res., vol. 34-35, pp. 1-143, 1974), were newly established in 1974. When the carotid artery is ligated on both sides, apoplectic symptoms such as convulsion fit, respiratory distress and coma, which lead to death (the incidence being 100%), are observed.
The time to the manifestation of the symptoms and the time to death were prolonged also by the administration of 100 mg/kg for 3 days or 35 mg/kg for 14 days.

[8] = Experiment 2, 100 mg/kg/day, 3 days
[9] = Experiment 3, 35 mg/kg/day, 14 days

Structure (SMILES): COC1=C(OC)C(=O)C(CCCCCCCCCCO)=C(C)C1=O [I (n = 10), 2,3-dimethoxy-5-methyl-6-(10-hydroxydecyl)-1,4-benzoquinone]
- Blood pressure (SHRSP [1]; day 0): 175 ± 3 mmHg
- Blood pressure (SHRSP [1]; day 7): 188 ± 4 mmHg
- Blood pressure (SHRSP [1]; day 14): 199 ± 3 mmHg
- Blood pressure (SHRSP [1]; day 21): 208 ± 4 mmHg
- Spontaneous manifestation of cerebral apoplexy (in words) (SHRSP [2]; 10 SHRSP fed without sodium chloride loading): can prevent manifestation of cerebral apoplexy
- Incidence of cerebral apoplexy (number of apoplectic cases/number of animals used) (SHRSP [2]; Experiment 1, sodium chloride loading +, 35 mg/kg/day in diet, 40 days, 8-week-old male SHRSP): 7/12
- Incidence of cerebral apoplexy (number of apoplectic cases/number of animals used) (SHRSP [2]; Experiment 2, no sodium chloride loading, 35 mg/kg/day, 45 days, 14-week-old male SHRSP): 5/10
- Cerebral apoplexy compared with the control group (in words) (SHRSP [2]; SHRSP fed with high sodium chloride level, compound in admixture with the diet, 12 male SHRSP): significantly (P<0.05 by Wilcoxon's two sample test) inhibited
- Heart lactic acid on wet weight basis [3]: 1.9 ± 0.12 µmol/g
- QRS width [3]: 2.9 ± 0.2 ms
- Body weight (normal rat; day 0): 224 ± 4 g
- Urine protein (normal rat; day 0): 47 ± 1 mg/day/250 g body weight
- Body weight (normal rat; day 14): 269 ± 8 g
- Urine protein (normal rat; day 14): 225 ± 38 mg/day/250 g body weight
- Body weight (normal rat; day 21): 274 ± 13 g
- Urine protein (normal rat; day 21): 367 ± 68 mg/day/250 g body weight
- Oxygen consumption rate [4]: 45.0 ± 3.7 Oxygen (n atom)/minute/mg prot
- Body weight loss (SHRSP [5]): 8 ± 3%
- Severity of symptoms (total score of group; 0 to 5 per individual) (SHRSP [5]): 20 ± 3
- Heart lactic acid on wet weight basis (normal rats): 1.65 ± 0.1 µmol/g
- QRS width (normal rats): 4.6 ± 0.4 ms
- Abnormalities (general condition, urinalysis, blood examination, histopathology) [6]: could not reveal any abnormalities ascribable to the administration
- Time to convulsion fit (SHRSP [7]; Experiment 1, 15 mg/kg/day oral, 21 days): 119 ± 13 min
- Time to convulsion fit (SHRSP [7]; [8]): 117 ± 15 min
- Time to death (SHRSP [7]; [8]): 235 ± 27 min
- Time to convulsion fit (SHRSP [7]; [9]): 93 ± 14 min
- Time to death (SHRSP [7]; [9]): 242 ± 29 min

Structure (SMILES): COC1=C(OC)C(=O)C(CCCCCCCCCCCCCCCCCCO)=C(C)C1=O [I (n = 18), 6-(18-hydroxyoctadecyl)-2,3-dimethoxy-5-methyl-1,4-benzoquinone]
- Oxygen consumption rate [4]: 44.5 ± 3.2 Oxygen (n atom)/minute/mg prot
